Assay results taken from ChEMBL document CHEMBL1156794, “Synthesis and antimicrobial evaluation of amphiphilic neamine derivatives” (J Med Chem, 2010).
≈ marks a conversion by molar mass, not a printed value.

Assays:
Staphylococcus aureus [1] = assay: Antibacterial activity against Staphylococcus aureus ATCC 25923 after 24 hrs by geometric microdilution method; format: functional; conditions: ATCC 25923, 24 h
Staphylococcus aureus [2] = assay: Antibacterial activity against aminoglycoside-4'-O-phosphoryltransferase expressing Staphylococcus aureus after 24 hrs by geometric microdilution method; format: functional
Staphylococcus aureus [3] = assay: Antibacterial activity against aminoglycoside-3'-O-phosphoryltransferase expressing Staphylococcus aureus after 24 hrs by geometric microdilution method; format: functional
Staphylococcus aureus [4] = assay: Antibacterial activity against MsrA pump expressing Staphylococcus aureus after 24 hrs by geometric microdilution method; format: functional
Staphylococcus aureus [5] = assay: Antibacterial activity against aminoglycoside-6'-N-acetyltransferase/2''-O-phosphoryltransferase expressing Staphylococcus aureus after 24 hrs by geometric microdilution method; format: functional
Staphylococcus aureus [6] = assay: Antibacterial activity against NorA pump expressing Staphylococcus aureus after 24 hrs by geometric microdilution method; format: functional
Pseudomonas aeruginosa [7] = assay: Antibacterial activity against Pseudomonas aeruginosa PAO1 after 24 hrs by geometric microdilution method; format: functional; conditions: PAO1, 24 h
Pseudomonas aeruginosa [8] = assay: Antibacterial activity against MexAB expressing Pseudomonas aeruginosa PA21 after 24 hrs by geometric microdilution method; format: functional; conditions: PA21, 24 h
Pseudomonas aeruginosa [9] = assay: Antibacterial activity against MexXY expressing Pseudomonas aeruginosa PT629 after 24 hrs by geometric microdilution method; format: functional; conditions: PT629, 24 h
Staphylococcus aureus [10] = assay: Antibacterial activity against vancomycin-resistant Staphylococcus aureus VRS-2 after 24 hrs by geometric microdilution method; format: functional; conditions: VRS-2, 24 h
Staphylococcus aureus [11] = assay: Antibacterial activity against methicillin-resistant Staphylococcus aureus ATCC 33592 clinical isolate after 24 hrs by geometric microdilution method; format: functional; conditions: ATCC 33592, 24 h
Klebsiella pneumoniae = assay: Antibacterial activity against Klebsiella pneumoniae ATCC 700603 after 24 hrs by geometric microdilution method; format: functional; conditions: ATCC 700603, 24 h
Pseudomonas aeruginosa [12] = assay: Antibacterial activity against AAC6'-2a expressing Pseudomonas aeruginosa F03 after 24 hrs by geometric microdilution method; format: functional; conditions: F03, 24 h
Acinetobacter lwoffii [13] = assay: microbe, parasite or virus in culture; conditions: ATCC 17925, 24 h
Description: Antibacterial activity against Acinetobacter lwoffii ATCC 17925 after 24 hrs by geometric microdilution method

Escherichia coli [14] = assay: Antibacterial activity against ANT2'-2a expressing Escherichia coli L58058.1 after 24 hrs by geometric microdilution method; format: functional; conditions: L58058.1, 24 h
Escherichia coli [15] = assay: microbe, parasite or virus in culture; conditions: ATCC 25922, 24 h
Description: Antibacterial activity against Escherichia coli ATCC 25922 after 24 hrs by geometric microdilution method

Pseudomonas aeruginosa [16] = assay: Antibacterial activity against TriABC expressing MexAB, MexCD, MexEF, MexXY deleted Pseudomonas aeruginosa PA405 after 24 hrs by geometric microdilution method; format: functional; conditions: PA405, 24 h
Acinetobacter lwoffii [17] = assay: Antibacterial activity against […] expressing Acinetobacter lwoffii AI.88-483 after 24 hrs by geometric microdilution method; format: functional; conditions: AI.88-483, 24 h
Escherichia coli [18] = assay: Antibacterial activity against AAC6'-2b expressing Escherichia coli PAZ505H8101 after 24 hrs by geometric microdilution method; format: functional; conditions: PAZ505H8101, 24 h
Pseudomonas aeruginosa [19] = assay: Antibacterial activity against MexEF expressing Pseudomonas aeruginosa PA03 after 24 hrs by geometric microdilution method; format: functional; conditions: PA03, 24 h
Pseudomonas aeruginosa [20] = assay: Antibacterial activity against MexAB, MexCD, MexEF, MexXY, TriABC deleted Pseudomonas aeruginosa PA406 after 24 hrs by geometric microdilution method; format: functional; conditions: PA406, 24 h
Pseudomonas aeruginosa [21] = assay: Antibacterial activity against Pseudomonas aeruginosa ATCC 27853 after 24 hrs by geometric microdilution method; format: functional; conditions: ATCC 27853, 24 h
Pseudomonas aeruginosa [22] = assay: Antibacterial activity against MexXY expressing Pseudomonas aeruginosa PA22 after 24 hrs by geometric microdilution method; format: functional; conditions: PA22, 24 h
Pseudomonas aeruginosa [23] = assay: Antibacterial activity against MexCD expressing Pseudomonas aeruginosa PA01 after 24 hrs by geometric microdilution method; format: functional; conditions: PA01, 24 h

| Compound | MIC (Staphylococcus aureus [1]) | MIC (Staphylococcus aureus [2]) | MIC (Staphylococcus aureus [3]) | MIC (Staphylococcus aureus [4]) | MIC (Staphylococcus aureus [5]) | MIC (Staphylococcus aureus [6]) | MIC (Pseudomonas aeruginosa [7]) | MIC (Pseudomonas aeruginosa [8]) | MIC (Pseudomonas aeruginosa [9]) | MIC (Staphylococcus aureus [10]) | MIC (Staphylococcus aureus [11]) | MIC (Klebsiella pneumoniae) | MIC (Pseudomonas aeruginosa [12]) | MIC (Acinetobacter lwoffii [13]) | MIC (Escherichia coli [14]) | MIC (Escherichia coli [15]) | MIC (Pseudomonas aeruginosa [16]) | MIC (Acinetobacter lwoffii [17]) | MIC (Escherichia coli [18]) | MIC (Pseudomonas aeruginosa [19]) | further results |
| --- | --- | --- | --- | --- | --- | --- | --- | --- | --- | --- | --- | --- | --- | --- | --- | --- | --- | --- | --- | --- | --- |
| NC[C@H]1O[C@H](O[C@H]2[C@H](O)[C@@H](OCc3ccccn3)[C@H](N)C[C@@H]2N)[C@H](N)[C@@H](OCc2ccccn2)[C@@H]1O | > 128 µg/mL | > 128 µg/mL | > 128 µg/mL | > 128 µg/mL | > 128 µg/mL | > 128 µg/mL | – | – | – | – | – | – | – | – | – | – | – | – | – | – | – |
| NC[C@H]1O[C@H](O[C@H]2[C@H](OCc3ccc4ccccc4c3)[C@@H](O)[C@H](N)C[C@@H]2N)[C@H](N)[C@@H](O)[C@@H]1O | > 128 µg/mL | > 128 µg/mL | > 128 µg/mL | > 128 µg/mL | > 128 µg/mL | > 128 µg/mL | – | – | – | – | – | – | – | – | – | – | – | – | – | – | – |
| NC[C@H]1O[C@H](O[C@H]2[C@H](O)[C@@H](O)[C@H](N)C[C@@H]2N)[C@H](N)[C@@H](OCc2ccc3ccccc3c2)[C@@H]1OCc1ccc2ccccc2c1 | 4 µg/mL (≈ 6.64 µM) | 8 µg/mL (≈ 13.3 µM) | 4 µg/mL (≈ 6.64 µM) | 8 µg/mL (≈ 13.3 µM) | 8 µg/mL (≈ 13.3 µM) | 8 µg/mL (≈ 13.3 µM) | 64 µg/mL (≈ 106 µM) | 64 µg/mL (≈ 106 µM) | > 128 µg/mL | 4 µg/mL (≈ 6.64 µM) | 8 µg/mL (≈ 13.3 µM) | > 128 µg/mL | > 128 µg/mL | 8 µg/mL (≈ 13.3 µM) | 16 µg/mL (≈ 26.5 µM) | 32 µg/mL (≈ 53.1 µM) | 8 µg/mL (≈ 13.3 µM) | > 128 µg/mL | 16 µg/mL (≈ 26.5 µM) | 8 µg/mL (≈ 13.3 µM) | MIC (Pseudomonas aeruginosa [20]): 8 µg/mL (≈ 13.3 µM); MIC (Pseudomonas aeruginosa [21]): 32 µg/mL (≈ 53.1 µM); MIC (Pseudomonas aeruginosa [22]): > 128 µg/mL; MIC (Pseudomonas aeruginosa [23]): 16 µg/mL (≈ 26.5 µM) |
| NC[C@H]1O[C@H](O[C@H]2[C@H](O)[C@@H](OCc3ccccc3)[C@H](N)C[C@@H]2N)[C@H](N)[C@@H](OCc2ccccc2)[C@@H]1OCc1ccccc1 | > 128 µg/mL | > 128 µg/mL | > 128 µg/mL | > 128 µg/mL | > 128 µg/mL | > 128 µg/mL | > 128 µg/mL | > 128 µg/mL | > 128 µg/mL | 64 µg/mL (≈ 108 µM) | > 128 µg/mL | > 128 µg/mL | > 128 µg/mL | 128 µg/mL (≈ 216 µM) | > 128 µg/mL | > 128 µg/mL | 64 µg/mL (≈ 108 µM) | > 128 µg/mL | > 128 µg/mL | > 128 µg/mL | MIC (Pseudomonas aeruginosa [20]): 64 µg/mL (≈ 108 µM); MIC (Pseudomonas aeruginosa [21]): > 128 µg/mL; MIC (Pseudomonas aeruginosa [22]): > 128 µg/mL; MIC (Pseudomonas aeruginosa [23]): > 128 µg/mL |
| NC[C@H]1O[C@H](O[C@H]2[C@H](O)[C@@H](O)[C@H](N)C[C@@H]2N)[C@H](N)[C@@H](OCc2ccc3ccccc3c2)[C@@H]1O | > 128 µg/mL | > 128 µg/mL | 128 µg/mL (≈ 277 µM) | > 128 µg/mL | > 128 µg/mL | > 128 µg/mL | – | – | – | – | – | – | – | – | – | – | – | – | – | – | – |
| NC[C@H]1O[C@H](O[C@H]2[C@H](O)[C@@H](OCc3ccc4ccccc4n3)[C@H](N)C[C@@H]2N)[C@H](N)[C@@H](OCc2ccc3ccccc3n2)[C@@H]1OCc1ccc2ccccc2n1 | 128 µg/mL (≈ 172 µM) | > 128 µg/mL | 64 µg/mL (≈ 85.8 µM) | > 128 µg/mL | 128 µg/mL (≈ 172 µM) | > 128 µg/mL | > 128 µg/mL | > 128 µg/mL | > 128 µg/mL | 64 µg/mL (≈ 85.8 µM) | 64 µg/mL (≈ 85.8 µM) | > 128 µg/mL | > 128 µg/mL | 128 µg/mL (≈ 172 µM) | > 128 µg/mL | > 128 µg/mL | 64 µg/mL (≈ 85.8 µM) | > 128 µg/mL | > 128 µg/mL | > 128 µg/mL | MIC (Pseudomonas aeruginosa [20]): 64 µg/mL (≈ 85.8 µM); MIC (Pseudomonas aeruginosa [21]): > 128 µg/mL; MIC (Pseudomonas aeruginosa [22]): > 128 µg/mL; MIC (Pseudomonas aeruginosa [23]): > 128 µg/mL |
| NC[C@H]1O[C@H](O[C@H]2[C@H](O)[C@@H](O)[C@H](N)C[C@@H]2N)[C@H](N)[C@@H](O)[C@@H]1OCc1ccc2ccccc2c1 | > 128 µg/mL | > 128 µg/mL | > 128 µg/mL | > 128 µg/mL | > 128 µg/mL | > 128 µg/mL | – | – | – | – | – | – | – | – | – | – | – | – | – | – | – |
| NC[C@H]1O[C@H](O[C@H]2[C@H](O)[C@@H](O)[C@H](N)C[C@@H]2N)[C@H](N)[C@@H](O)[C@@H]1O [NEAMINE] | 32 µg/mL (≈ 99.3 µM) | > 128 µg/mL | > 128 µg/mL | 16 µg/mL (≈ 49.6 µM) | 16 µg/mL (≈ 49.6 µM) | 32 µg/mL (≈ 99.3 µM) | > 128 µg/mL | > 128 µg/mL | > 128 µg/mL | > 128 µg/mL | > 128 µg/mL | 32 µg/mL (≈ 99.3 µM) | > 128 µg/mL | 2 µg/mL (≈ 6.2 µM) | 32 µg/mL (≈ 99.3 µM) | 32 µg/mL (≈ 99.3 µM) | 128 µg/mL (≈ 397 µM) | > 128 µg/mL | > 128 µg/mL | > 128 µg/mL | MIC (Pseudomonas aeruginosa [20]): 128 µg/mL (≈ 397 µM); MIC (Pseudomonas aeruginosa [21]): > 128 µg/mL; MIC (Pseudomonas aeruginosa [22]): > 128 µg/mL; MIC (Pseudomonas aeruginosa [23]): > 128 µg/mL |
